Reference: patent publication US7635692B2, “Composition for the prevention of osteoporosis comprising a combination of isoflavones and polyunsaturated fatty acids” (DSM IP Assets B.V., priority 2001, dated 2009)

Experiments:
[1] = tested on: ovariectomized rat osteoporosis (OVX) model; assay: Bone mineral density (BMD) of femur by DXA in the OVX rat model; format: in vivo; conditions: OVX rats
Excerpt: In the following experimental section dual-energy X-ray absorptiometry (DXA) was used to measure bone mineral density.
In the experimental set up data were elaborated using the ovariectomized rat osteoporosis (OVX) model. This model mimics the estrogen deficient status as found in postmenopausal women or poststerilized female pets leading to osteoporosis. The SHAM group with intact ovaries served as control. Each test group consisted of 10-12 animals. The feed used was free of isoflavones, such as, for example, genistein. […] The administration of vitamin K1, in an amount of 20 μg/kg feed corresponds to a daily dosage of about 1 μg/kg BW, the estimated daily requirement of vitamin K1. The amount of vitamin D3 was 500 IU/kg feed which corresponds to a daily dosage of 25 IU/kg BW, the estimated daily requirement. For fortification, PUFA (5% of ROPUPA “30” n-3 Food Oil) was added to the feed corresponding to a PUPA fortification of % in feed as given in Table 1. Bone mineral density, osteocalcin, and deoxypyridinolin have been measured 84 days post intervention.
Bone mineral density (BMD) measurement in the femur of OVX rats: […]

[2] = tested on: ovariectomized rat osteoporosis (OVX) model; assay: Serum osteocalcin (bone formation marker) in OVX rats; format: in vivo
Procedure: Osteocalcin, a biochemical marker for bone formation, is a bone-specific protein secreted primarily in osteoblasts, i.e. the bone forming cells. Serum osteocalcin was measured as marker for bone formation.
(§1) In the experimental set up data were elaborated using the ovariectomized rat osteoporosis (OVX) model. This model mimics the estrogen deficient status as found in postmenopausal women or poststerilized female pets leading to osteoporosis. The SHAM group with intact ovaries served as control. Each test group consisted of 10-12 animals. The feed used was free of isoflavones, such as, for example, genistein. The test compounds in various combinations as given in Table 1 have been administered by feed admix. […] The administration of vitamin K1, in an amount of 20 μg/kg feed corresponds to a daily dosage of about 1 μg/kg BW, the estimated daily requirement of vitamin K1. The amount of vitamin D3 was 500 IU/kg feed which corresponds to a daily dosage of 25 IU/kg BW, the estimated daily requirement. For fortification, PUFA (5% of ROPUPA “30” n-3 Food Oil) was added to the feed corresponding to a PUPA fortification of % in feed as given in Table 1. Bone mineral density, osteocalcin, and deoxypyridinolin have been measured 84 days post intervention.
Serum Osteocalcin (bone formation marker) measurement in OVX rats: […]

[3] = tested on: ovariectomized rat osteoporosis (OVX) model; assay: Deoxypyridinoline excretion (bone resorption marker) in OVX rats; format: in vivo
Procedure: Deoxypyridinoline (DPD) crosslinks excretion provides a highly specific marker for bone resorption. DPD crosslinks excretion was measured as a marker for bone resorption. The values have to be corrected for urinary concentration by creatinine measurement as it is known in the art.
as §1
Deoxypyridinoline (bone resorption marker) measurement in OVX rats: […]

[4] = Plasma genistein level in rats after feed admix; format: in vivo, rat; conditions: genistein 15 mg/kg BW per day, comparable to Japanese people on a traditional diet
Excerpt: as §1

[5] = 84 days post intervention, compared with the other groups

Which results are given for `O=c1c(-c2ccc(O)cc2)coc2cc(O)cc(O)c12` [Genistein, 4′,5,7-trihydroxy-isoflavone]?
Effect on BMD (in words) [1, 5]: improved BMD to control values; Bone mineral density of femur, Mean ([1]; feed admix, day 84 postintervention, DXA): 0.143 g/cm^2; Effect on serum osteocalcin levels (in words) [2, 5]: reduced osteocalcin levels to control values; Serum osteocalcin, Mean serum conc. ([2]; feed admix, day 84 postintervention): 14.6 ng/mL; Effect on DPD excretion (in words) [3, 5]: restores DPD excretion to values of the control group; Deoxypyridinoline excretion, Mean ([3]; feed admix, day 84 postintervention, corrected by creatinine): 220.5 nmol DPD/mmol Creatinine; plasma genistein level [4]: ~280 nM
